Measured values published in publication PMC3772838, “Preclinical Development of a Novel Class of CXCR4 Antagonist Impairing Solid Tumors Growth and Metastases” (PLoS ONE, 2013).

Legend:
[1] = system: B16-CXCR4 murine melanoma cells; experiment: B16-CXCR4 melanoma lung metastases model; assay type: in vivo, C57BL/6 mice; details: cells pre-treated 30 min with 10 µM, IP once a day for 10 days, peptides 2 mg/kg, AMD3100 1.25 mg/kg
Experimental: (§1) All mice were obtained from Harlan (Bar Harbor, ME, USA) and their care was in accord with institutional guidelines. Twenty-five 6-8-week-old female C57BL/6 mice were inoculated into the tail vein with 5×10^5 B16–CXCR4 cells pre-treated for 30 minutes with peptide S (10 µM), peptide R (10 µM), peptide I (10 µM), or AMD3100 (10 µM). Six hours later intraperitoneal (IP) treatment started with AMD3100 (1.25 mg/kg) or each peptide (2 mg/kg) in sterile PBS once a day for 10 days. A week later the mice were sacrificed. The experiment was repeated three times. The lung metastases assay was also conducted with K7M2 murine osteosarcoma cells. Twenty-five 6-8-week-old female Balb/c mice were injected via tail vein with 2.5×10^5 K7M2 cells pre-treated for 30 minutes with AMD3100 (10 µM), peptide S (10 µM), peptide R (10 µM), peptide I (10 µM) and animals were treated IP daily for 15 days with 2.5 mg/kg for AMD3100 group and 10 mg/kg for each peptide groups. A week later the mice were sacrificed. Xenograft tumor growth was evaluated using pEGFP-SN12C cells in exponential growth phase subcutaneously injected into the right flank of twenty-five 6-8-week-old female CD1 nude mice. 2×10^6 SN12C-pEGFP were injected in the right flank of each mouse and treated with AMD3100 (1.25 mg/kg) and peptides (2 mg/kg) for 10 days ip. A week later mice were euthanized and tumor volume evaluated through Leica MacroFluo fluorescence stereomicroscope (Leica microsystem, Houston, TX). The experiment was repeated three times. The Istituto Nazionale per lo Studio e la Cura dei Tumori, Fondazione Giovanni Pascale Independent Etical Comettee approved the study (CEI/600/12).
(A) B16-CXCR4 tumor cells pre-treated for 30 minutes with AMD3100 (10 µM), peptide R (10 µM), peptide I (10 µM), or peptide S (10 µM) were inoculated into the tail vein of C57/B female mice and the mice were further treated intraperitoneally for 10 days with 1.25 mg/kg AMD3100, or 2 mg/kg peptide R, peptide I or peptide S. Gross examination of representative lungs; (B) Graphical representation of the number of lung metastases in treated mice. Double tailed T-Test was used for statistical analyses. The experiments were repeated three times.

P-ERK1/2 = experiment: CXCL12-induced p-ERK induction (immunoblotting); assay type: cell-based, human; details: PES43 cells serum-starved, CXCL12 100 ng/ml, after 5 minutes
Experimental: Cells were homogenized in lysis buffer (40 mM Hepes pH 7,5, 120 mM NaCl, 5 mM MgCl2, 1 mM EGTA, 0,5 mM EDTA, 1% Triton X-100) containing protease (Complete Tablets- EDTA-free, Roche) and phosphatase inhibitors (20 mM α-glycerol-3-phosphate, 2,5 mM Na-pyrophosphate). The following primary antibodies were used: anti-p-ERK (sc7383, Santa Cruz Biotechnology, Inc., Santa Cruz, CA, USA) and anti-ERK2 (sc 154G, Santa Cruz Biotechnology CA, USA). P-Erk induction was plotted as ratio P-Erk in the presence of CXCL12 (100 ng/ml)/P-Erk in serum free.
(§2) Experiments were conducted using PES43 cells. (A) Migration was assayed in 24-well Transwell chambers using inserts with 8-µm pore membrane. […] Migrated cells on the lower surface were fixed, stained with H&E and counted microscopically. The results are expressed as the migration index relative to migration in presence of BSA alone. […] Images were acquired with OKO Time Lapse. […] PES43 cells were serum-starved and incubated with CXCL12 (100 ng/ml) alone or in presence of AMD3100/peptides. Each peptide was tested in at least three different experiments. Double tailed T-Test was used for statistical analyses. Differences were considered significant at P<0.05 compared to control.
PES43 cell lines were serum starved for 16 hours. […] (TIF) Click here for additional data file.

[2] = system: SN12C-EGFP renal cancer cells; experiment: SN12C-pEGFP subcutaneous xenograft tumor growth; assay type: in vivo, CD1 nude mice; details: IP 10 days, peptides 2 mg/kg, AMD3100 1.25 mg/kg; measured a week later by fluorescence stereomicroscope; control 65.97±35.1; average
Experimental: as §1
6 to 8-week-old female CD1 nude mice were injected subcutaneously with 2×10^6 pEGFP-SN12C cells pre-treated with 10 µM AMD3100 or 10 µM of each peptide. Beginning the following day mice were further treated intraperitoneally for 10 days with 1.25 mg/kg AMD3100 or 2 mg/kg of peptides R, I or S. A week later mice were euthanized and tumor volume evaluated directly from the flank of mice using a Leica MacroFluo fluorescence stereomicroscope (Leica microsystem, Houston, TX) (A). The experiments were repeated three times. B. SN12C-PEGFP cells migration toward CXCL12 in the presence of AMD3100 or Peptide R, S and I.

CXCR4 [3] = experiment: CXCL12-induced calcium mobilization assay (Fluo-3 AM); assay type: cell-based, human; details: CCRF-CEM cells, 10 µM peptide, percent of fluorescence with CXCL12 alone; at least three experiments
Experimental: For the calcium efflux studies a 2 mg/mL stock solution of Fluo-3 acetoxymethylester (Invitrogen, Carlsbad, CA) in anhydrous DMSO was used. […] CCRF–CEM cells were resuspended in cell loading buffer (PBS, 1% FCS, 1 mmol/L MgCl2, and 1 mmol/L CaCl2) at 5×10^5 cells/mL. Fluo-3AM and Pluronic acid were added to each sample to increase Fluo-3AM solubility and improve dye loading into the cells. Baseline calcium efflux was established, then chemokines were added as indicated and chemokine-induced calcium efflux was measured.
(§3) (A) The amount of peptides or AMD3100 bound was assessed indirectly by flow cytometry using the PE-labelled anti-CXCR4 antibody (clone 12G5). Results are expressed as the percent antibody bound. (B) The Ca^2+ influx assay was performed using CCRF-CEM cells and Fluo-3 AM calcium indicator. CCRF-CEM cells were incubated 30 minutes at 37°C with Fluo-3 AM and 15 minutes with AMD3100 (10 µM)/peptides (10 µM) and then treated with CXCL12. Results are expressed as the percent of Fluo-3 AM fluorescence in presence of CXCL12 alone. Each peptide was tested in at least three different experiments. Double tailed T-Test was used for statistical analyses. Differences were considered significant at P<0.05 compared to control. Control (CTRL).

CXCR4 [4] = experiment: Competition with 12G5 anti-CXCR4 antibody binding (flow cytometry); set-up: species or system human; details: CCRF-CEM cells, 10 µM peptide, 30 min pre-incubation at 37°C, PE-labelled 12G5, flow cytometry; at least three experiments
Experimental: (§4) CXCR4 binding was evaluated as previously described. Briefly 5×10^5 CCRF–CEM cells were pre-incubated with 10 µM peptides or AMD3100 in binding buffer (PBS 1× plus 0.2% BSA and 0.1% NaN3) for 30 minutes at 37°C, 5% CO2 and then labeled for 30 minutes with anti-CXCR4 PE-antibody (FAB170P, clone 12G5, R&D Systems, Minneapolis, MN, USA). The cells were analyzed by FACS Canto II cytofluorometer (Becton Dickinson Immunocytometry Systems, Mountain View, CA, USA).
as §3

[5] = system: PES43 human melanoma cells; experiment: CXCL12-dependent Transwell migration of PES43 cells; assay type: cell-based; details: 100 ng/mL CXCL12 in lower chamber, 16 h, tested 10 nM, 100 nM, 1 µM, 10 µM
Experimental: (§5) Migration was assayed in 24-well Transwell chambers (Corning Inc., Corning, NY) using inserts with an 8-µm pore membrane. Membranes were precoated with collagen (human collagen type I/III) and fibronectin (20 µg/mL each). […] After 16 h incubation, cells on the upper surface of the filter were removed using a cotton wool swab; migration of cells in migration media alone was compared with migration in media containing CXCL12. The cells were counted in ten different fields (original magnification ×40). The migration index was defined as the ratio between migrating cells in the experimental group and migrated cells in the control group. For the wound closure assay, tested cells were allowed to reach confluence in six-well plates containing serum-depleted growth medium and scratched with pipette tips to make wounds. The wound closure was observed microscopically 6 hours post-wounding (OKO Time Lapse).
as §2

[6] = system: PES43 human melanoma cells; experiment: CXCL12-mediated wound closure assay; assay type: cell-based; details: 6 hours post-wounding
Experimental: as §5, §2

CXCR3 = experiment: Anti-CXCR3 antibody (clone 1C6/CXCR3) binding in CXCR3 overexpressing cells; set-up: species or system human; details: COLO205 cells; peptides 10 µM, CXCL11 100 nM, 30 min pre-incubation; Figure S3
Experimental: [The procedure below names another target; the source says it served here with some conditions changed.] as §4
(§6) Fluo-3AM and Pluronic acid were added to each sample to increase Fluo-3AM solubility and improve dye loading into the cells. (TIF) Click here for additional data file.

CXCR7 = experiment: Anti-CXCR7 antibody (clone 11G8) binding in CXCR7 overexpressing cells; set-up: species or system human; details: MCF-7 cells; peptides 10 µM, CXCL11 100 nM, 30 min pre-incubation; Figure S3
Experimental: [The procedure below names another target; the source says it served here with some conditions changed.] as §4, §6

## c1cc(CN2CCCNCCNCCCNCC2)ccc1CN1CCCNCCNCCCNCC1 [AMD3100, reference compound]
[1]
  fold reduction of the number of lung metastases vs control: 5.6 fold
[1]; control 8.4±3.49, average
  number of lung metastases: 1.5±2.9
P-ERK1/2
  CXCL12-mediated p-ERK induction: reduced
[2]
  tumor volume of SN12C-GFP xenograft: 35.53±10.42 mm^3

## Arg-Ala-[Cys-Arg-Tyr-Trp-Cys] [Peptide T]
CXCR4 [3]
  CXCL12-induced calcium efflux (Fluo-3 AM fluorescence): 33.65 % of control
CXCR4 [4]
  association of the 12G5-CXCR4 antibody to the receptor: 22 % of control
[5]
  concentration at which CXCL12-dependent migration was inhibited: ≤ 10 nM
[6]
  CXCL12-mediated wound healing: delayed
P-ERK1/2
  CXCL12-mediated p-ERK induction: not

## CXCL11: specific ligand (chemokine) that inhibited antibody binding to CXCR3 or CXCR7
CXCR3
  binding to CXCR3 (anti-CXCR3 antibody): inhibited
CXCR7
  binding to CXCR7 (anti-CXCR7 antibody): inhibited
